# Test results as given in EP0606506A1, “Beta-lactamase resistant antibacterial composition” (Kim, Yeong Sul, priority 1993, dated 1994).
# Where two headings read alike, the source gives them in different places.
# Legend:
# Assay in all cases: Agar dilution MIC, in vitro antibacterial activity test
# Assay type in all cases: cell-based
# Escherichia coli DC 2 = conditions: DC2, 18 h
# Description: (§1) The antibacterial activity of each of sulbactam and the compounds I, II, III and IV was measured according to the agar dilution method using Mueller Hinton agar. The compounds to be tested were diluted twice in stages and then introduced into the agar plate. On this agar plate the selected bacterial strains were inoculated and then incubated at 37 °C for 18 hours. The agar plate was then visually observed to determine the minimum concentration, at which the growth of bacterial strains was not observed, which is then designated as the MIC value of the relevant antibiotic compound.
# (§2) In the same manner, the MIC value of the compound I, II, III or IV in the presence of sulbactam was measured. In this case, the concentration of sulbactam in each agar plate should be constantly maintained at about 13µg/ml, which corresponds to approximately a quarter of the MIC value of sulbactam, to ensure that the decrease in MIC value of the compounds I - IV in the presence of sulbactam is not affected by the antibacterial activity of sulbactam itself. […] As a result of this experiment, the MIC values of each of four kinds of antibiotics, i.e. the compound I, II, III or IV used alone and in the presence of sulbactam were compared to each other and then the synergistic effect of the composition of the present invention was estimated.
# Escherichia coli DC 0 = conditions: DC0, 18 h
# Description: as §1, §2
# Escherichia coli O 55 = conditions: O55, 18 h
# Description: as §1, §2
# [1] = tested on: Staphylococcus aureus 285; conditions: Staphylococcus aureus, 285, 18 h
# Description: as §1, §2
# [2] = tested on: Staphylococcus aureus 503; conditions: Staphylococcus aureus, 503, 18 h
# Description: as §1, §2
# [3] = tested on: Pseudomonas aeruginosa 1771 M; conditions: 18 h
# Description: as §1, §2
# Escherichia coli 1507 E = conditions: 18 h
# Description: as §1, §2
# Escherichia coli TEM = conditions: 18 h
# Description: as §1, §2
# [4] = read-out: MIC value, alone, Mueller Hinton agar, 37°C
# [5] = read-out: MIC value, in the presence of sulbactam(13μg/ml), Mueller Hinton agar, 37°C
# [6] = alone, Mueller Hinton agar, 37°C, read-out: MIC value
# [7] = in the presence of sulbactam(13μg/ml), Mueller Hinton agar, 37°C, read-out: MIC value
SMILES,MIC (Escherichia coli DC 2; [4]) [µg/mL],MIC (Escherichia coli DC 2; [5]) [µg/mL],MIC (Escherichia coli DC 0; [6]) [µg/mL],MIC (Escherichia coli DC 0; [7]) [µg/mL],MIC (Escherichia coli O 55; [6]) [µg/mL],MIC (Escherichia coli O 55; [7]) [µg/mL],"MIC [1, 6] [µg/mL]","MIC [1, 7] [µg/mL]","MIC [2, 6] [µg/mL]","MIC [2, 7] [µg/mL]","MIC [3, 6] [µg/mL]","MIC [3, 7] [µg/mL]",MIC (Escherichia coli 1507 E; [6]) [µg/mL],MIC (Escherichia coli 1507 E; [7]) [µg/mL],MIC (Escherichia coli TEM; [4]) [µg/mL],MIC (Escherichia coli TEM; [5]) [µg/mL],MIC (Escherichia coli DC 2; [6]) [µg/mL],MIC (Escherichia coli DC 2; [7]) [µg/mL],MIC (Escherichia coli DC 0; [4]) [µg/mL],MIC (Escherichia coli O 55; [4]) [µg/mL],other results
"CC1(C)S[C@@H]2C(NC(=O)[C@H](N)c3ccc(O)cc3)C(=O)N2[C@H]1C(=O)O (stereo partly drawn) [compound I, 6-[D(-)-α-amino-p-hydroxyphenylacetamido]penicillanic acid]",1.56,0.781,6.25,0.781,1.56,< 0.002,1.56,0.195,1.56,0.098,0.098,0.098,3.12,0.391,> 100,> 100,–,–,–,–,–
"C=N[C@@H](C(=O)NC1C(=O)N2[C@@H]1SC(C)(C)[C@@H]2C(=O)O)c1ccc(O)cc1 (stereo partly drawn) [compound II, 6-[D-2-(methyleneamino)-2-(4-hydroxyphenyl)acetamido]penicillanic acid]",–,–,6.25,3.12,1.56,< 0.002,1.56,0.195,1.56,0.098,0.195,0.049,6.25,0.098,> 100,> 100,1.56,0.781,–,–,–
"CCN1CCN(C(=O)N[C@@H](C(=O)NC2C(=O)N3[C@@H]2SC(C)(C)[C@@H]3C(=O)O)c2ccc(O)cc2)C(=O)C1=O (stereo partly drawn) [compound III, 6-[D-2-(4-ethyl-2,3-dioxopiperazinocarbonylamino)-2-(4-hydroxyphenyl)acetamido]penicillanic acid]",–,–,–,0.195,0.195,< 0.002,3.12,0.781,6.25,0.391,0.098,0.025,0.781,0.098,> 100,1.56,0.098,0.025,1.56,–,–
"CNC(=O)C[C@@H](N)C(=O)N[C@@H](C(=O)N[C@@H]1C(=O)N2[C@@H]1SC(C)(C)[C@@H]2C(=O)O)c1ccc(O)cc1 [compound IV, 6-[D-2-(D-2-amino-3-N-methylcarbamoyl-propionamido)-2-p-hydroxyphenylacetamido]penicillanic acid]",0.781,0.195,–,–,–,–,–,–,–,–,–,–,–,–,> 100,25,–,–,3.12,0.781,"MIC (Escherichia coli DC 0; [5]): 0.781 µg/mL; MIC (Escherichia coli O 55; [5]): < 0.002 µg/mL; MIC [1, 4]: 6.25 µg/mL; MIC [1, 5]: 1.56 µg/mL; MIC [2, 4]: 6.25 µg/mL; MIC [2, 5]: 1.56 µg/mL; MIC [3, 4]: 0.391 µg/mL; MIC [3, 5]: 0.025 µg/mL; MIC (Escherichia coli 1507 E; [4]): 3.12 µg/mL; MIC (Escherichia coli 1507 E; [5]): 0.098 µg/mL"
CC1(C)[C@H](C(=O)O)N2C(=O)C[C@H]2S1(=O)=O [sulbactam],100,–,–,–,–,–,–,–,–,–,–,–,–,–,> 100,–,–,–,> 100,100,"MIC [1, 4]: 100 µg/mL; MIC [2, 4]: 100 µg/mL; MIC [3, 4]: 50 µg/mL; MIC (Escherichia coli 1507 E; [4]): > 100 µg/mL"
